Measured values reported in patent US11149037B2, “Pyrazole MAGL inhibitors” (H. Lundbeck A/S, priority 2017, dated 2021).

Tests used:
FAAH [1] = molecular target: FAAH (Homo sapiens (Human), UniProt O00519); experiment: In vitro competitive activity-based protein profiling, human proteomes (prefrontal cortex or PC3 cell membrane fractions); format: biochemical; settings: human proteome; for inhibition at 1 µM: read-out: FAAH % inh. 1 μM (human)
Summary of the method: (§1)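 Activity of MAGL and FAAH was quantified from fluorescent gel band intensities. Beforehand, inhibitors at several concentrations competed against subsequent probe labelling (FP-Rh, JW912 or HT-01) in species-matched proteomes, each step 30 min at 37° C.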

MAGL [2] = molecular target: MAGL (Homo sapiens (Human), UniProt Q99685); experiment: as above; format: biochemical; settings: human proteome; for inhibition at 1 µM: read-out: MAGL % inh. 1 μM (human)
MAGL (Homo sapiens (Human), UniProt Q99685), sequence (Q99685 whole entry): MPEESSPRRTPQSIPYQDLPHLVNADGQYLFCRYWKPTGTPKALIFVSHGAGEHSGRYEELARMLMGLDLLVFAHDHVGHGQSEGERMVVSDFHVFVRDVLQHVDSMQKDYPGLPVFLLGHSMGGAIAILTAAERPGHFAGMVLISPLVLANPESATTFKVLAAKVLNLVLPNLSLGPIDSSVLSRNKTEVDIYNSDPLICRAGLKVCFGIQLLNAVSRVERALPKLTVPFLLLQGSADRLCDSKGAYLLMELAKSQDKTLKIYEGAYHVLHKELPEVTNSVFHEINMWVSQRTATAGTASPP
Summary of the method: as §1

FAAH [3] = molecular target: T1, FAAH (Mus musculus (Mouse), UniProt O08914); experiment: In vitro competitive activity-based protein profiling, mouse proteomes (brain membrane fraction or cell lysates); format: biochemical; settings: mouse proteome, read-out: FAAH % inh. 1 μM (mouse)
T1 sequence (O08914 whole entry): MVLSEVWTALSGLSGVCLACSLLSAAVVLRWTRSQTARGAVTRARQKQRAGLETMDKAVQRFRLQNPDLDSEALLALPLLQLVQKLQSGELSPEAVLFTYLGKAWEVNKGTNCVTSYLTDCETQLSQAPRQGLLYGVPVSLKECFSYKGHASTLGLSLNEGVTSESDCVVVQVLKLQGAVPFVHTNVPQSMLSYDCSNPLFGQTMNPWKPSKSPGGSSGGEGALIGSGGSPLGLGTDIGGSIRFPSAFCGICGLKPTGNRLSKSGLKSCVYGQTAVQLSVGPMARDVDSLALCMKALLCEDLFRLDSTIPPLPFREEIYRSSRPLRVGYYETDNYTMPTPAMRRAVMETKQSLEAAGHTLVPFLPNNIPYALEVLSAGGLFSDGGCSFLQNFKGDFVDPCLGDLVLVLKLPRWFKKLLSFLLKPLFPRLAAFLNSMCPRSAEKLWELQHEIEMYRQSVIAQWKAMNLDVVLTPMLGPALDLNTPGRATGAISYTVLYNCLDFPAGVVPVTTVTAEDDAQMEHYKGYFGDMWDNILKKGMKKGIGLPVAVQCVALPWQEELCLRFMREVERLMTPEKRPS
Summary of the method: as §1

MAGL [4] = molecular target: T2, MAGL (Mus musculus (Mouse), UniProt O35678); experiment: as above; format: biochemical; settings: mouse proteome, read-out: MAGL % inh. 1 μM (mouse)
T2 sequence (O35678 whole entry): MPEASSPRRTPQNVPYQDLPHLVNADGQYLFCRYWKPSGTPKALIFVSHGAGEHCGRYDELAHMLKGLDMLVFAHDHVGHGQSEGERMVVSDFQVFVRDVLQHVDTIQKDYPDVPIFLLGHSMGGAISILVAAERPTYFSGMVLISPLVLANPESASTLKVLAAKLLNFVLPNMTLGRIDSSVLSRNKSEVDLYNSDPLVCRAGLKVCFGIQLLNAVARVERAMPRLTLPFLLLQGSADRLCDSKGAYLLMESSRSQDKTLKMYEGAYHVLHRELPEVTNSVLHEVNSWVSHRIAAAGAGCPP
Summary of the method: as §1

FAAH [5] = molecular target: T1, FAAH; experiment: Mouse brain proteomes from inhibitor treated mice (oral gavage, sacrificed 4 h after administration); format: in vivo; settings: 5 mg/kg oral gavage
Description: (§2) Preparation of Mouse Brain Proteomes from Inhibitor Treated Mice.
(§3) Inhibitors were administered to wild-type C57B1/6J by oral gavage in a vehicle of polyethylene glycol. Each animal was sacrificed 4 h following administration and brain proteomes were prepared and analyzed according to previously established methods (See Niphakis, M. J., et al. (2011) ACS Chem. Neurosci. and Long, J. Z., et al. Nat. Chem. Biol. 5:37-44).

MAGL [6] = molecular target: T2, MAGL; experiment: as above; format: in vivo; settings: 5 mg/kg oral gavage
Description: as §2, §3

FAAH (Homo sapiens (Human), UniProt O00519), sequence (O00519 whole entry): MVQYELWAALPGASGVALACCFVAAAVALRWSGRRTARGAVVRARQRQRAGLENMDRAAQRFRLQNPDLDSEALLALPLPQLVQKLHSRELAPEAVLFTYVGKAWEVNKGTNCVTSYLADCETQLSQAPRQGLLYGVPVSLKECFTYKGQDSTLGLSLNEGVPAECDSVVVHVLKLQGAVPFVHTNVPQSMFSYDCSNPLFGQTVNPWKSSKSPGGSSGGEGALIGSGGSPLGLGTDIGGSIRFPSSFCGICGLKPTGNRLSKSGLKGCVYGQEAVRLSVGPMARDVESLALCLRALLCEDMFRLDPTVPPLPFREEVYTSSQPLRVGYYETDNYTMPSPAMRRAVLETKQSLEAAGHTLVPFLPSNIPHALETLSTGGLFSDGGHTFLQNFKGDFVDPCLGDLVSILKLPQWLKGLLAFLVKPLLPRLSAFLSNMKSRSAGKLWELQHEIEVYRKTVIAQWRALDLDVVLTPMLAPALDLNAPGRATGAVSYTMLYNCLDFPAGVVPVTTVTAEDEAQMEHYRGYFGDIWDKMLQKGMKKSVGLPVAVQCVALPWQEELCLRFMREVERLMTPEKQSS

Row | Structure (SMILES) | inhibition at 1 µM (FAAH [1]) [%] | inhibition at 1 µM (MAGL [2]) [%] | inhibition at 1 µM (FAAH [3]) [%] | inhibition at 1 µM (MAGL [4]) [%] | IC50 (FAAH [1]) [µM] | IC50 (MAGL [2]) [µM] | FAAH % inh. 5 mg/kg (mouse) (FAAH [5]) | MAGL % inh. 5 mg/kg (mouse) (MAGL [6])
1 | CC(=O)Nc1ccn(C(=O)N2CCN(Cc3ccc(Cl)cc3NCC(=O)O)CC2)n1 [Example 108, (2-((4-(3-Acetamido-1H-pyrazole-1-carbonyl)piperazin-1-yl)methyl)-5-chlorophenyl)glycine] | 0 to 25 | > 75 | 0 to 25 | > 75 |  |  | D (% inhibition is greater than or equal to 0% and less than 25%) | D (% inhibition is greater than or equal to 0% and less than 25%)
2 | CC(C)OC1CCN(c2cc(CN3CCN(C(=O)n4ccc(NS(C)(=O)=O)n4)C[C@@H]3C)ccc2Cl)CC1 [Example 32, (S)—N-(1-(4-(4-chloro-3-(4-isopropoxypiperidin-1-yl)benzyl)-3-methylpiperazine-1-carbonyl)-1H-pyrazol-3-yl)methanesulfonamide] | 0 to 25 | > 75 | 0 to 25 | > 75 |  |  | D (% inhibition is greater than or equal to 0% and less than 25%) | A (% inhibition is greater than or equal to 75%)
3 | CC(=O)Nc1ccn(C(=O)N2CCC3(CCCN3C(=O)c3ccc(C#N)c(C4CC4)c3)CC2)n1 [Example 87, N-(1-(1-(4-Cyano-3-cyclopropylbenzoyl)-1,8-diazaspiro[4.5]decane-8-carbonyl)-1H-pyrazol-3-yl)acetamide] | 0 to 25 | > 75 | 0 to 25 | > 75 |  |  | D (% inhibition is greater than or equal to 0% and less than 25%) | D (% inhibition is greater than or equal to 0% and less than 25%)
4 | CC(=O)Nc1ccn(C(=O)N2CC3CN(Cc4cccc(C(F)(F)F)c4)CC3C2)n1 (stereo not shown) [Example 112, N-(1-(5-(3-(Trifluoromethyl)benzyl)octahydropyrrolo[3,4-c]pyrrole-2-carbonyl)-1H-pyrazol-3-yl)acetamide] | 25 to 50 | > 75 | > 75 | > 75 |  |  | A (% inhibition is greater than or equal to 75%) | A (% inhibition is greater than or equal to 75%)
5 | CS(=O)(=O)Nc1ccn(C(=O)N2CCN(Cc3ccc(Cl)c(N4CCO[C@@H]5CCC[C@@H]54)c3)CC2)n1 [Example 158, N-(1-(4-(4-Chloro-3-((4aS,7aR)-hexahydrocyclopenta[b][1,4]oxazin-4(4aH)-yl)benzyl)piperazine-1-carbonyl)-1H-pyrazol-3-yl)methanesulfonamide] | 0 to 25 | > 75 | 0 to 25 | > 75 |  |  | D (% inhibition is greater than or equal to 0% and less than 25%) | D (% inhibition is greater than or equal to 0% and less than 25%)
6 | CC(=O)Nc1ccn(C(=O)N2CCN(Cc3ccc(Cl)cc3OC3(C(=O)O)CC3)CC2)n1 [Example 4, 1-(2-((4-(3-acetamido-1H-pyrazole-1-carbonyl)piperazin-1-yl)methyl)-5-chlorophenoxy)cyclopropane-1-carboxylic acid] | 0 to 25 | > 75 | 0 to 25 | > 75 |  |  | D (% inhibition is greater than or equal to 0% and less than 25%) | D (% inhibition is greater than or equal to 0% and less than 25%)
7 | CC(=O)Nc1ccn(C(=O)N2CCN(Cc3ccc(N4CC5COCC5C4)cc3C(F)(F)F)CC2)n1 (stereo not shown) [Example 22, N-(1-(4-(4-(tetrahydro-1H-furo[3,4-c]pyrrol-5(3H)-yl)-2-(trifluoromethyl)benzyl)piperazine-1-carbonyl)-1H-pyrazol-3-yl)acetamide] | 50 to 75 | > 75 | > 75 | > 75 | 0.1 to 1 | < 0.1 | C (% inhibition is greater than or equal to 25% and less than 50%) | C (% inhibition is greater than or equal to 25% and less than 50%)

Now from value to compound, other results behind:

Row | inhibition at 1 µM (FAAH [1]) [%] | inhibition at 1 µM (MAGL [2]) [%] | inhibition at 1 µM (FAAH [3]) [%] | inhibition at 1 µM (MAGL [4]) [%] | IC50 (FAAH [1]) [µM] | IC50 (MAGL [2]) [µM] | Structure (SMILES) | FAAH % inh. 5 mg/kg (mouse) (FAAH [5]) | MAGL % inh. 5 mg/kg (mouse) (MAGL [6])
8 | 0 to 25 | > 75 | 0 to 25 | > 75 |  |  | C[C@@H]1CN(Cc2ccc(Cl)c(N3CC4COCC4C3)c2)CCN1C(=O)n1ccc(NS(C)(=O)=O)n1 (stereo partly drawn) [Example 137, N-(1-((2R)-4-(4-Chloro-3-(tetrahydro-1H-furo[3,4-c]pyrrol-5(3H)-yl)benzyl)-2-methylpiperazine-1-carbonyl)-1H-pyrazol-3-yl)methanesulfonamide] | D (% inhibition is greater than or equal to 0% and less than 25%) | D (% inhibition is greater than or equal to 0% and less than 25%)
9 | 0 to 25 | > 75 | 0 to 25 | > 75 |  |  | CS(=O)(=O)Nc1ccn(C(=O)N2CC[C@H](Oc3ccc(C(F)(F)F)c(N4CCC(F)CC4)c3)[C@H](F)C2)n1 [Example 134, N-(1-((3R,4S)-3-Fluoro-4-(3-(4-fluoropiperidin-1-yl)-4-(trifluoromethyl)phenoxy)piperidine-1-carbonyl)-1H-pyrazol-3-yl)methanesulfonamide] | D (% inhibition is greater than or equal to 0% and less than 25%) | C (% inhibition is greater than or equal to 25% and less than 50%)
10 | 25 to 50 | > 75 | > 75 | > 75 | 1 to 10 | < 0.1 | CC(=O)Nc1ccn(C(=O)N2CCC3(CCN(C(=O)c4cc5ccc(C(F)(F)F)cc5s4)C3)CC2)n1 [Example 154, N-(1-(2-(6-(Trifluoromethyl)benzo[b]thiophene-2-carbonyl)-2,8-diazaspiro[4.5]decane-8-carbonyl)-1H-pyrazol-3-yl)acetamide] | C (% inhibition is greater than or equal to 25% and less than 50%) | B (% inhibition is greater than or equal to 50% and less than 75%)
11 | 0 to 25 | > 75 | 0 to 25 | > 75 |  |  | CS(=O)(=O)Nc1ccn(C(=O)N2CCN(Cc3ccc(Cl)c(N4CCCC45CC5)c3)CC2)n1 [Example 12, N-(1-(4-(4-chloro-3-(4-azaspiro[2.4]heptan-4-yl)benzyl)piperazine-1-carbonyl)-1H-pyrazol-3-yl)methanesulfonamide] | D (% inhibition is greater than or equal to 0% and less than 25%) | D (% inhibition is greater than or equal to 0% and less than 25%)
12 | 0 to 25 | > 75 | 0 to 25 | > 75 |  |  | CS(=O)(=O)Nc1ccn(C(=O)N2CCN(Cc3ccc(Cl)nc3N3CCCC3)CC2)n1 [Example 90, N-(1-(4-((6-Chloro-2-(pyrrolidin-1-yl)pyridin-3-yl)methyl)piperazine-1-carbonyl)-1H-pyrazol-3-yl)methanesulfonamide] | D (% inhibition is greater than or equal to 0% and less than 25%) | C (% inhibition is greater than or equal to 25% and less than 50%)
13 | 50 to 75 | > 75 | > 75 | > 75 |  |  | CC(=O)Nc1ccn(C(=O)N2CC3CN(Cc4ccc(N5CCCC5)cc4Cl)CC3C2)n1 (stereo not shown) [Example 169, N-(1-(5-(2-Chloro-4-(pyrrolidin-1-yl)benzyl)octahydropyrrolo[3,4-c]pyrrole-2-carbonyl)-1H-pyrazol-3-yl)acetamide] | B (% inhibition is greater than or equal to 50% and less than 75%) | B (% inhibition is greater than or equal to 50% and less than 75%)
14 | 0 to 25 | > 75 | 0 to 25 | > 75 |  |  | CC(=O)N(Cc1ccc(C(F)(F)F)cc1N1CCCC1)C1(C)CCN(C(=O)n2ccc(NS(C)(=O)=O)n2)CC1 [Example 103, N-(4-Methyl-1-(3-(methylsulfonamido)-1H-pyrazole-1-carbonyl)piperidin-4-yl)-N-(2-(pyrrolidin-1-yl)-4-(trifluoromethyl)benzyl)acetamide] | D (% inhibition is greater than or equal to 0% and less than 25%) | D (% inhibition is greater than or equal to 0% and less than 25%)
15 | 50 to 75 | > 75 | > 75 | > 75 |  |  | CC(=O)Nc1ccn(C(=O)N2CC3CN(Cc4cc(N5CCCC5)cc(C(F)(F)F)c4)CC3C2)n1 (stereo not shown) [Example 168, N-(1-(5-(3-(Pyrrolidin-1-yl)-5-(trifluoromethyl)benzyl)octahydropyrrolo[3,4-c]pyrrole-2-carbonyl)-1H-pyrazol-3-yl)acetamide] | A (% inhibition is greater than or equal to 75%) | A (% inhibition is greater than or equal to 75%)
